# Reference: patent US6509368B1, “Use of catechol derivatives as proteinase inhibitors” (Gruenenthal GmbH, priority 1998, dated 2003)
# Experiments:
# [1] = target: Human gelatinase B (MMP-9) (Homo sapiens, UniProt P14780); assay: Inhibition of purified human gelatinase B in vitro; assay type: biochemical
# Method: (§1) The experiments were carried out in vitro using purified human enzymes. The enzyme substrates used were substrates to be measured by photometry or fluorometry.
# Human elastase = target: T1, Human elastase (Homo sapiens, UniProt P08246); assay: Inhibition of purified human elastase in vitro; assay type: biochemical
# T1 sequence (P08246 30-247 limits assumed): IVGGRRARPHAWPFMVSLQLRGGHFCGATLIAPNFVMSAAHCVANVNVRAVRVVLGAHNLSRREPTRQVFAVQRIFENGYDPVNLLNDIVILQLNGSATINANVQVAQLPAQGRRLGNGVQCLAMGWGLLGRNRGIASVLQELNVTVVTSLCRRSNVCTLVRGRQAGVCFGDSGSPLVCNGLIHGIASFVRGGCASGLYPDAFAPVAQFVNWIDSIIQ
# Method: as §1
# Stromelysin-1 (MMP-3) = Stromelysin-1 (MMP-3) (Homo sapiens, UniProt P08254); assay: Inhibition of purified stromelysin-1 in vitro; assay type: biochemical
# Method: as §1
# [2] = system: mesenchymal cells from the limb buds of murine embryos (chondrocytes); assay: Organoid model of cartilage formation: mineralisation in the presence of LPS; assay type: cell-based; details: concentration of 10 μm; calcium content of extracellular matrix after culturing for 14 days
# Method: In a further in vitro experiment, the effectiveness of the compounds as regards inflammatory diseases was tested in an organoid model of cartilage formation. For that model, mesenchymal cells from the limb buds of murine embryos were placed in cell culture. In the cell culture, the cells formed an extracellular matrix corresponding to joint cartilage. Mineralisation of the extracellular matrix was induced by addition of β-glycerophosphate. Cartilage formation and mineralisation were inhibited by addition of bacterial lipopolysaccharide (LPS) as inflammation mediator. The effect of the compounds on the LPS-induced impairment of mineralisation was examined by measuring the calcium content of the extracellular matrix by flame photometry after culturing for 14 days.
# The values indicate the percentage increase in mineralisation in comparison with the LPS-treated culture.
# [3] = target: Human leucocyte collagenase (MMP-8) (Homo sapiens, UniProt P22894); assay: Inhibition of purified human leucocyte collagenase in vitro; assay type: biochemical
# Method: as §1
# [4] = target: T2, Human fibroblast collagenase (MMP-1) (Homo sapiens, UniProt P03956); assay: Inhibition of purified human fibroblast collagenase in vitro; assay type: biochemical; details: read-out: Human fibroblast collagenase (MMP-1): % inhibition at concentration
# T2 sequence (P03956 100-469): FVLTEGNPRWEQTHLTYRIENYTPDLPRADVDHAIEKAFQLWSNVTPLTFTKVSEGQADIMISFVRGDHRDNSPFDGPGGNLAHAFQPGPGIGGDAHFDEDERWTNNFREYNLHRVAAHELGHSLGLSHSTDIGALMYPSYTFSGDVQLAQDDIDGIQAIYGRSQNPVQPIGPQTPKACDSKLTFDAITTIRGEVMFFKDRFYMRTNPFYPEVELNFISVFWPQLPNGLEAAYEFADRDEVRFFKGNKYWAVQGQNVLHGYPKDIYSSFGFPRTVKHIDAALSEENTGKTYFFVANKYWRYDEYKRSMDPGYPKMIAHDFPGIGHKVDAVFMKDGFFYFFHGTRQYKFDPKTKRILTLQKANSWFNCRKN
# Method: as §1
# Sequence of Stromelysin-1 (MMP-3) (P08254 100-477): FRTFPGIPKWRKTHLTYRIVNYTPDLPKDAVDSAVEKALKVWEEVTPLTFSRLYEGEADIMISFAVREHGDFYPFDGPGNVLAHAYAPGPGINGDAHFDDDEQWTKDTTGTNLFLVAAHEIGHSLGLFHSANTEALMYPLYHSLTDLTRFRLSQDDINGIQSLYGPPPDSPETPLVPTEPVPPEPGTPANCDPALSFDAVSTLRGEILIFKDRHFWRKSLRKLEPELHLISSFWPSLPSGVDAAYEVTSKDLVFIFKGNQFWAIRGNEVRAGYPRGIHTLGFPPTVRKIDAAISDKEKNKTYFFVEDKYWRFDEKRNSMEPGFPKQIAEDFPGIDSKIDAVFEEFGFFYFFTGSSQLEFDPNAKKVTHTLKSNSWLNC
# Sequence of Human leucocyte collagenase (MMP-8) (P22894 101-467): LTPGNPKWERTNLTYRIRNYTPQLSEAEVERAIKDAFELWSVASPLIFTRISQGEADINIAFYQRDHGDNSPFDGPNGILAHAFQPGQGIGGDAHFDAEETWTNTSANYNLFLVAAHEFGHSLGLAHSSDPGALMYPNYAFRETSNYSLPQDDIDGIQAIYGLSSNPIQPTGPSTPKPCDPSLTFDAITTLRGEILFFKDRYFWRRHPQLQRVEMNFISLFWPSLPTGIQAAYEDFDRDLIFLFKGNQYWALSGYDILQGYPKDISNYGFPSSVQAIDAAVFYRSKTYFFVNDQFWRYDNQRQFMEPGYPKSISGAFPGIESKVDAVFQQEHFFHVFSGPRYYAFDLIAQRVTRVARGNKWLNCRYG
# Sequence of Human gelatinase B (MMP-9) (P14780 94-707): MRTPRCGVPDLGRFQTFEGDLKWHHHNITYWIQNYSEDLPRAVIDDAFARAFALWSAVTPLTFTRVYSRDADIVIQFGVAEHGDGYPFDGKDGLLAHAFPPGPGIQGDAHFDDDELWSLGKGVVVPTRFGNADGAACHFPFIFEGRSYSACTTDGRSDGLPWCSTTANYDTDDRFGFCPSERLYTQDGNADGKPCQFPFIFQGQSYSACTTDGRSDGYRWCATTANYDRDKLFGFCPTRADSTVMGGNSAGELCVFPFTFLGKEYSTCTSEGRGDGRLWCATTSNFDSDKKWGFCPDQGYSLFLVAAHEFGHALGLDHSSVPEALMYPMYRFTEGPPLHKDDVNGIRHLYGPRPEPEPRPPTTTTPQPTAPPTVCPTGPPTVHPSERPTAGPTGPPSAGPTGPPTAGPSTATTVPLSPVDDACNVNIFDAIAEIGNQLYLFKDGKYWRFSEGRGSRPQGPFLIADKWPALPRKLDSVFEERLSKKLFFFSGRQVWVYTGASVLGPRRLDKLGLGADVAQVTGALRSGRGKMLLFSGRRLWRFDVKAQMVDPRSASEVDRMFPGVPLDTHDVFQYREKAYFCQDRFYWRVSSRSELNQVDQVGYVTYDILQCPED
Structure (SMILES),IC50 [1],IC50 (Human elastase),IC50 (Stromelysin-1 (MMP-3)),Chondrocytes: Mineralisation in the presence of LPS; action (percentage increase in mineralisation in comparison with the LPS-treated culture) [2],IC50 [3],"inhibition at 100 µM ([3]; 100 μM, read-out: Human leucocyte collagenase (MMP-8): % inhibition at concentration)",inhibition at 100 µM [4],"inhibition at 100 µM (Stromelysin-1 (MMP-3); 100 μM, read-out: Stromelysin-1 (MMP-3) % inhibition at concentration)"
"COC(=O)C1=Cc2cc(O)c(O)c(O)c2CC1 [Example 1, 5,6,7-trihydroxy-3,4-dihydronaphthalene-2-carboxylic acid methyl ester]",72 µM,5.5 µM,850 µM,+42%,60 µM,,,
"CCCCCC#Cc1ccc(O)c(O)c1C=CC(=O)OC [Example 2, 3-(6-hept-1-ynyl-2,3-dihydroxy-phenyl)-acrylic acid methyl ester]",,2 µM,,+38%,173 µM,,,
"CCCCCCCCCOc1ccc(O)c(O)c1 [Example 3, 4-nonyloxy-1,2-benzene diol]",,1.6 µM,320 µM,+43%,,40%,,
"OCC#CCCCCCCC#Cc1ccc(O)c(O)c1 [Example 4, 4-(11-hydroxy-undeca-1,9-diynyl)-1,2-benzene diol]",,55 µM,,+12%,,,,
"Oc1ccc(C=Cc2ccc3ccccc3c2)cc1O [Example 5, 4-(2-naphth-2-yl-vinyl)-1,2-benzene diol]",32 µM,0.125 µM,,+81%,100 µM,,40%,22%
"O=C(c1ccc(O)c(O)c1)c1cc(-c2ccccc2)[nH]n1 [Example 6, (3,4-dihydroxy-phenyl)(5-phenyl-1H-pyrazol-3-yl)-methanone]",,,,+17%,,,,
